Measured values from a compilation of properties of binary mixtures (doi:10.1021/je990084v).

Test: excess molar enthalpy (molar enthalpy of mixing); xn = mol fraction of the nth substance listed
Settings: 298.15 K, 100 kPa

excess molar enthalpy (x2 = 0.214)	excess molar enthalpy (x2 = 0.3094)	excess molar enthalpy (x2 = 0.4262)	excess molar enthalpy (x2 = 0.5328)	excess molar enthalpy (x2 = 0.6067)	excess molar enthalpy (x2 = 0.6761)	excess molar enthalpy (x2 = 0.72)	excess molar enthalpy (x2 = 0.0754)	excess molar enthalpy (x2 = 0.1116)	excess molar enthalpy (x2 = 0.2147)	excess molar enthalpy (x2 = 0.3102)	excess molar enthalpy (x2 = 0.5338)	excess molar enthalpy (x2 = 0.6007)	excess molar enthalpy (x2 = 0.677)	SMILES
0.692 kJ/mol	0.792 kJ/mol	0.827 kJ/mol	0.781 kJ/mol	0.712 kJ/mol	0.611 kJ/mol	0.555 kJ/mol	–	–	–	–	–	–	–	CC(C)OC(C)C + CCC(C)O
–	–	–	–	–	–	–	0.255 kJ/mol	0.338 kJ/mol	0.458 kJ/mol	0.495 kJ/mol	0.428 kJ/mol	0.37 kJ/mol	0.463 kJ/mol	CC(C)OC(C)C + CCCCO
